Experimental data as given in ChEMBL document CHEMBL1201862, “PubChem BioAssay data set” (2004).
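96-well plates; 48 h exposure; 5 concentrations. Endpoints by linear interpolation between flanking doses. Not reached: highest tested concentration assigned. GI50: concentration for 50% inhibition of growth.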 Active and inactive are the calls of the source. Rule as the data show it: active = GI50 up to about 1.1 µM and inactive = higher.

Legend:
Assay in all cases: DTP human tumour cell line panel, 48 h
MDA-N = system: MDA-N
T47D = system: T47D
HCC 2998 = system: HCC 2998
IGROV-1 = system: IGROV-1
DU-145 = system: DU-145
OVCAR-3 = system: OVCAR-3
UO-31 = system: UO-31
SN12C = system: SN12C
COLO 205 = system: COLO 205
SNB-19 = system: SNB-19
BT-549 = system: BT-549
HT-29 = system: HT-29
RXF 393 = system: RXF 393
MDA-MB-231 = system: MDA-MB-231
ACHN = system: ACHN
HOP-62 = system: HOP-62
MDA-MB-435 = system: MDA-MB-435
NCI-H226 = system: NCI-H226
SK-MEL-28 = system: SK-MEL-28
OVCAR-4 = system: OVCAR-4
SNB-75 = system: SNB-75
EKVX = system: EKVX
PC-3 = system: PC-3
CAKI-1 = system: CAKI-1
SF-295 = system: SF-295
NCI/ADR-RES = system: NCI/ADR-RES
A498 = system: A498
OVCAR-5 = system: OVCAR-5
NCI-H522 = system: NCI-H522
CCRF-CEM = system: CCRF-CEM
OVCAR-8 = system: OVCAR-8
HOP-92 = system: HOP-92
SK-OV-3 = system: SK-OV-3
SK-MEL-2 = system: SK-MEL-2
HCT-15 = system: HCT-15
A549 = system: A549
SK-MEL-5 = system: SK-MEL-5
Hs-578T = system: Hs-578T
M14 = system: M14
Malme-3M = system: Malme-3M
HCT-116 = system: HCT-116
UACC-257 = system: UACC-257
KM12 = system: KM12
SF-268 = system: SF-268
SW-620 = system: SW-620
786-0 = system: 786-0
RPMI-8226 = system: RPMI-8226
UACC-62 = system: UACC-62
U-251 = system: U-251
NCI-H23 = system: NCI-H23
K562 = system: K562
LOX IMVI = system: LOX IMVI
MOLT-4 = system: MOLT-4
NCI-H460 = system: NCI-H460
TK-10 = system: TK-10
MCF7 = system: MCF7
SR = system: SR
HL-60 = system: HL-60
SF-539 = system: SF-539

C=C1[C@@H](OC(C)=O)/C=C/C2C3C(=O)[C@@](C)(OC(C)=O)[C@H]([C@H](OC(C)=O)[C@]4(O)[C@@H](C)C(=O)O[C@H]4[C@H]1Cl)[C@@]23C (some centres not stated)
GI50 (MDA-N): > 100 µM (inactive) | GI50 (T47D): > 100 µM (inactive) | GI50 (HCC 2998): > 100 µM (inactive) | GI50 (IGROV-1): > 100 µM (inactive) | GI50 (DU-145): > 100 µM (inactive) | GI50 (OVCAR-3): > 100 µM (inactive) | GI50 (UO-31): > 100 µM (inactive) | GI50 (SN12C): > 100 µM (inactive) | GI50 (COLO 205): > 100 µM (inactive) | GI50 (SNB-19): > 100 µM (inactive) | GI50 (BT-549): > 100 µM (inactive) | GI50 (HT-29): > 100 µM (inactive) | GI50 (RXF 393): > 100 µM (inactive) | GI50 (MDA-MB-231): > 100 µM (inactive) | GI50 (ACHN): > 100 µM (inactive) | GI50 (HOP-62): > 100 µM (inactive) | GI50 (MDA-MB-435): > 100 µM (inactive) | GI50 (NCI-H226): > 100 µM (inactive) | GI50 (SK-MEL-28): > 100 µM (inactive) | GI50 (OVCAR-4): > 100 µM (inactive) | GI50 (SNB-75): > 100 µM (inactive) | GI50 (EKVX): > 100 µM (inactive) | GI50 (PC-3): > 100 µM (inactive) | GI50 (CAKI-1): > 100 µM (inactive) | GI50 (SF-295): > 100 µM (inactive) | GI50 (NCI/ADR-RES): > 100 µM (inactive) | GI50 (A498): > 100 µM (inactive) | GI50 (OVCAR-5): > 100 µM (inactive) | GI50 (NCI-H522): > 100 µM (inactive) | GI50 (CCRF-CEM): > 100 µM (inactive) | GI50 (OVCAR-8): > 100 µM (inactive) | GI50 (HOP-92): > 100 µM (inactive) | GI50 (SK-OV-3): > 100 µM (inactive) | GI50 (SK-MEL-2): > 100 µM (inactive) | GI50 (HCT-15): > 100 µM | GI50 (A549): > 100 µM (inactive) | GI50 (SK-MEL-5): > 100 µM (inactive) | GI50 (Hs-578T): > 100 µM (inactive) | GI50 (M14): > 100 µM (inactive) | GI50 (Malme-3M): > 100 µM (inactive) | GI50 (HCT-116): > 100 µM (inactive) | GI50 (UACC-257): > 100 µM (inactive) | GI50 (KM12): > 100 µM (inactive) | GI50 (SF-268): > 100 µM (inactive) | GI50 (SW-620): > 100 µM (inactive) | GI50 (786-0): > 100 µM (inactive) | GI50 (RPMI-8226): > 100 µM (inactive) | GI50 (UACC-62): > 100 µM (inactive) | GI50 (U-251): > 100 µM (inactive) | GI50 (NCI-H23): > 100 µM (inactive) | GI50 (K562): > 100 µM (inactive) | GI50 (LOX IMVI): > 100 µM (inactive) | GI50 (MOLT-4): > 100 µM (inactive) | GI50 (NCI-H460): > 100 µM (inactive) | GI50 (TK-10): > 100 µM (inactive)

CCOC(=O)NC(Nc1cc(Cl)ccc1OC)(C(F)(F)F)C(F)(F)F
GI50 (MDA-N): > 100 µM (inactive) | GI50 (T47D): > 100 µM (inactive) | GI50 (HCC 2998): > 100 µM (inactive) | GI50 (IGROV-1): > 100 µM (inactive) | GI50 (DU-145): > 100 µM (inactive) | GI50 (OVCAR-3): > 100 µM (inactive) | GI50 (UO-31): 30.1 µM (inactive) | GI50 (SN12C): > 100 µM (inactive) | GI50 (SNB-19): > 100 µM (inactive) | GI50 (BT-549): > 100 µM (inactive) | GI50 (HT-29): > 100 µM (inactive) | GI50 (MCF7): > 100 µM (inactive) | GI50 (RXF 393): 68.9 µM (inactive) | GI50 (MDA-MB-231): > 100 µM (inactive) | GI50 (ACHN): > 100 µM (inactive) | GI50 (HOP-62): > 100 µM (inactive) | GI50 (MDA-MB-435): > 100 µM (inactive) | GI50 (NCI-H226): > 100 µM (inactive) | GI50 (SK-MEL-28): > 100 µM (inactive) | GI50 (SNB-75): > 100 µM (inactive) | GI50 (EKVX): > 100 µM (inactive) | GI50 (SR): 74.3 µM (inactive) | GI50 (CAKI-1): > 100 µM (inactive) | GI50 (A498): > 100 µM (inactive) | GI50 (OVCAR-5): > 100 µM (inactive) | GI50 (NCI-H522): 64 µM (inactive) | GI50 (CCRF-CEM): 25.9 µM (inactive) | GI50 (HOP-92): > 100 µM (inactive) | GI50 (SK-OV-3): > 100 µM (inactive) | GI50 (SK-MEL-2): > 100 µM (inactive) | GI50 (HCT-15): > 100 µM | GI50 (A549): > 100 µM (inactive) | GI50 (SK-MEL-5): > 100 µM (inactive) | GI50 (Hs-578T): > 100 µM (inactive) | GI50 (M14): > 100 µM (inactive) | GI50 (Malme-3M): > 100 µM (inactive) | GI50 (HCT-116): > 100 µM (inactive) | GI50 (UACC-257): > 100 µM (inactive) | GI50 (KM12): > 100 µM (inactive) | GI50 (SF-268): > 100 µM (inactive) | GI50 (SW-620): > 100 µM (inactive) | GI50 (RPMI-8226): > 100 µM (inactive) | GI50 (UACC-62): > 100 µM (inactive) | GI50 (U-251): > 100 µM (inactive) | GI50 (HL-60): > 100 µM (inactive) | GI50 (NCI-H23): > 100 µM (inactive) | GI50 (SF-539): > 100 µM (inactive) | GI50 (K562): > 100 µM (inactive) | GI50 (LOX IMVI): > 100 µM (inactive) | GI50 (MOLT-4): > 100 µM (inactive) | GI50 (NCI-H460): > 100 µM (inactive) | GI50 (TK-10): > 100 µM (inactive)
